Values of other authors in article PMC12655172, “Borylated 5-Membered Ring Iminosugars: Synthesis and Biological Evaluation for Glycosidase Inhibition and Anticancer Properties for Application in Boron Neutron Capture Therapy (BNCT)—Part 2” (Pharmaceuticals, 2025).

Experiments:
α-D-glucosidase = target: α-D-glucosidase; parameters: method as in PMID 31557624; details: cited from earlier work
amyloglucosidase = details: read-out: IC50 amyloglucosidase; cited from earlier work
β-glucosidase (almond) = target: β-glucosidase (almond); parameters: method as in PMID 33228403; details: cited from earlier work
[1] = target: α-D-mannosidase (fruit fly Golgi II); parameters: method as in PMID 29323461; details: cited from earlier work
[2] = tested on: α-D-mannosidase (neutral); parameters: method as in PMID 8457203; details: cited from earlier work
[3] = tested on: α-D-mannosidase (Golgi II); parameters: method as in PMID 8457203; details: cited from earlier work
[4] = tested on: α-D-mannosidase (lysosomal acidic); parameters: method as in PMID 8457203; details: cited from earlier work
[5] = target: α-D-mannosidase (fruit fly lysosomal acidic); parameters: method as in PMID 29323461; details: cited from earlier work
[6] = tested on: β-D-galactosidase (E. coli); details: cited from earlier work
[7] = tested on: T1, α-D-mannosidase (Jack bean); details: cited from earlier work
T1 construct: purchased Sigma-Aldrich; host or cells: Jack bean

[8] = tested on: α-D-galactosidase (coffee bean); details: cited from earlier work
β-D-glucosidase (almond) [9] = tested on: β-D-glucosidase (almond); parameters: method as in PMID 41011173; details: cited from earlier work
β-D-glucosidase (almond) [10] = tested on: β-D-glucosidase (almond); parameters: method as in PMID 41011173; details: Table 3 type assay; cited from earlier work
[11] = target: T2, β-D-glucosidase (bovine liver) (Bos taurus, UniProt F1MNT6); parameters: method as in PMID 41011173; details: cited from earlier work
T2 sequence (F1MNT6 1-469): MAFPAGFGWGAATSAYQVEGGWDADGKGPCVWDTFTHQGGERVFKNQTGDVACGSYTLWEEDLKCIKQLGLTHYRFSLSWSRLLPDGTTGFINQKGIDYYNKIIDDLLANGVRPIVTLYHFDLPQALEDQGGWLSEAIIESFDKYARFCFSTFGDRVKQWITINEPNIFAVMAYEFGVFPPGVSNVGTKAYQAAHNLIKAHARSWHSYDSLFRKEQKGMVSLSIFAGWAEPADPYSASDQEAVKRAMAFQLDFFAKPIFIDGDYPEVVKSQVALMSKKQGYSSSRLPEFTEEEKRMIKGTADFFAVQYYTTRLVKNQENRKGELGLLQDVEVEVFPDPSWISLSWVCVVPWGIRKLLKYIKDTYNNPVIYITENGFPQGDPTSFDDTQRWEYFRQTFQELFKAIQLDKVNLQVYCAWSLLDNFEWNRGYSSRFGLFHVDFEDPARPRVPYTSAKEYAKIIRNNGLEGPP

[12] = target: α-glucosidase (endoplasmatic reticulum II); parameters: method as in PMID 19294724; details: cited from earlier work
[13] = target: α-glucosidase (endoplasmatic reticulum I); parameters: method as in PMID 19294724; details: cited from earlier work
α-L-fucosidase = tested on: α-L-fucosidase; parameters: method as in PMID 2706004; details: cited from earlier work

In the case of `OC[C@@H](O)[C@H]1[C@H](O)[C@@H](O)CN1Cc1ccccc1` [N-benzyl-1,4-dideoxy-1,4-imino-D-galactitol], the IC50 (α-D-glucosidase) is listed as 40.6 µM and the “inhibition α-D-glucosidase” value (α-D-glucosidase) is listed as 93.2%.

In the case of `OC[C@H]1NC[C@H](O)[C@@H](O)[C@@H]1O` [1-DNJ], the IC50 (amyloglucosidase) is given as 2.1 µM and the IC50 (β-glucosidase (almond)) is given as […].

In the case of `Cl.OC[C@@H](O)[C@@H]1[C@H](O)[C@H](O)CN1Cc1ccccc1` [N-benzyl-1,4-dideoxy-1,4-imino-D-mannitol.HCl], the IC50 [1] is listed as 690 µM, the “inhibition α-D-mannosidase neutral” value [2] is listed as 44% and the “inhibition α-D-mannosidase Golgi II” value [3] is listed as 72%. The “inhibition α-D-mannosidase lysosomal acidic” value [4] was 34% and the IC50 [5] was 1500 µM.

For `Cl.OC[C@@H](O)[C@H]1[C@H](O)[C@H](O)CN1Cc1ccccc1` [N-Benzyl-1,4-dideoxy-1,4-imino-D-talitol.HCl], the “inhibition β-D-galactosidase (E. coli)” value [6] is given as “poorly inhibited”, the “inhibition α-D-mannosidase (Jack bean)” value [7] is given as “poorly inhibited” and the “inhibition α-D-galactosidase (coffee bean)” value [8] is given as “poorly inhibited”.

In the case of `OB(O)c1ccc(CN2C[C@@H](O)[C@H]3OC(O)[C@H](O)[C@H]32)cc1` (stereo partly drawn) [para 7, N-(4-methylphenylboronic acid)-3,6-dideoxy-3,6-imino-D-gulofuranose], the “inhibition % β-D-Glucosidase Almond” value (β-D-glucosidase (almond) [9]) is listed as 43.6%, the “Percentage inhibition β-D-Glucosidase Almond” value (β-D-glucosidase (almond) [10]) is listed as 68.1% and the “inhibition % β-D-Glucosidase Bovine Liver” value [11] is listed as 38.8%.

In the case of `CCCCN1C[C@H](O)[C@@H](O)[C@H](O)[C@H]1CO` [N-Butyl-DNJ], the IC50 [12] is given as 10.8 µM and the IC50 [13] is given as 0.68 µM.

For `OC[C@@H](O)[C@@H]1[C@@H](O)[C@@H](O)CN1Cc1ccccc1` [N-Benzyl-1,4-dideoxy-1,4-imino-D-allitol], the “inhibition α-L-fucosidase” value (α-L-fucosidase) is given as “α-L-Fucosidase (76%)”.

In the case of `Cl.OC[C@@H](O)[C@H]1[C@H](O)[C@H](O)CN1Cc1ccccc1B(O)O` [N-(2-Methylphenylboronic acid)-1,4-dideoxy-1,4-imino-D-talitol.HCl], the “inhibition β-D-galactosidase (E. coli)” value [6] is given as “β-D-Galactosidase (E. coli) (44–55%)”, the “inhibition α-D-mannosidase (Jack bean)” value [7] is given as 10% and the “inhibition α-D-galactosidase (coffee bean)” value [8] is given as < 5%.
